Experimental findings from PubChem BioAssay (NCI) are described below.

SMILES strings stand for the structures.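 Protocol summary: plate cells (96-well), add compound at 5 concentrations, incubate 48 h, interpolate endpoints linearly. TGI marks complete inhibition of growth.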

Among the test systems are DLD-1 colon; K-562 leukemia; MOLT-4 leukemia; NCI-H23 lung; OVCAR-4 ovarian; SF-268 CNS; SNB-78 CNS; XF 498 CNS; 786-0 renal; MDA-MB-435; MDA-N; T-47D breast; LXFL 529 NSCLC.
Common to all, as to assay: NCI anticancer screen, dose series, 48 h

In the case of `CCS(=O)(=O)Nc1ccc(Nc2c3ccccc3nc3ccccc23)c(OC)c1`, the TGI in the test with DLD-1 colon amounted to 17.3 µM; in the test with K-562 leukemia, 14.6 µM; in the test on MOLT-4 leukemia, 10.6 µM; in the test with NCI-H23 lung, 3.79 µM; with OVCAR-4 ovarian, 16.1 µM; in the test on SF-268 CNS, 12.5 µM. The values for the TGI with SNB-78 CNS and in the test on XF 498 CNS were 18.4 µM and 2.01 µM, respectively.
As to `COc1ccc(/C=C2\C(=O)N(C3OC(COC(C)=O)C(OC(C)=O)C(OC(C)=O)C3OC(C)=O)c3ccccc3N=C2N)cc1` (centres undefined), the TGI in the test on 786-0 renal amounted to 37.5 µM; in the test on K-562 leukemia, 38.1 µM; in the test on MDA-MB-435, 35.7 µM; in the test on MDA-N, 26 µM; in the test with MOLT-4 leukemia, 39.7 µM; in the test with NCI-H23 lung it was 59.1 µM. In addition, the TGI was over 100 µM in the test on OVCAR-4 ovarian, over 100 µM with SF-268 CNS and 40.8 µM with T-47D breast.
`ONc1ncnc2nc[nH]c12`: the TGI in the test with 786-0 renal, in the test on DLD-1 colon, with K-562 leukemia, in the test with LXFL 529 NSCLC, in the test with MOLT-4 leukemia and with NCI-H23 lung was over 100 µM each time. Further, the TGI in the test with OVCAR-4 ovarian, in the test on SF-268 CNS and with XF 498 CNS was over 100 µM in each case.
Turning to `CCOC(=O)C1(C(=O)OCC)Nc2cccnc2N(C)N1`, the TGI in the test with 786-0 renal is 36 µM; in the test with K-562 leukemia, 49.9 µM; in the test with MDA-MB-435, 36 µM; in the test with MDA-N it was 35.4 µM; in the test on MOLT-4 leukemia it was 55.3 µM; in the test on NCI-H23 lung, 42.1 µM. The TGI with OVCAR-4 ovarian is 34.3 µM; in the test on SF-268 CNS it was over 100 µM; with T-47D breast, 53.5 µM.
Regarding `CCOC(=O)c1nc2ccc(Cl)cc2c2c1Cc1ccccc1-2`, the TGI in the test on 786-0 renal, in the test on DLD-1 colon, in the test with K-562 leukemia, in the test on LXFL 529 NSCLC, in the test on MOLT-4 leukemia and in the test on NCI-H23 lung was over 100 µM in each case. The TGI in the test with OVCAR-4 ovarian, in the test with SF-268 CNS, in the test with SNB-78 CNS and in the test with XF 498 CNS was over 100 µM in each case.
With `COc1ccc2nc(N/N=C/C(C)=N/Nc3cc(C)c4cc(OC)ccc4n3)cc(C)c2c1`, the TGI stood at 28 µM in the test with 786-0 renal; 9.81 µM in the test on K-562 leukemia; 62.1 µM in the test with MDA-MB-435; 55.5 µM in the test on MDA-N; 42.1 µM in the test on MOLT-4 leukemia; 48.9 µM in the test on NCI-H23 lung. Besides, the values for the TGI with OVCAR-4 ovarian, in the test on SF-268 CNS and in the test with T-47D breast were 35.6 µM, 60.8 µM and over 73.6 µM, respectively.
Consider `CCOC(=O)N(Cc1cccs1)c1cc(OC)c(OC)c(OC)c1`, for which the TGI with 786-0 renal is over 100 µM; with K-562 leukemia it was 65.7 µM; in the test with MDA-MB-435, 63.2 µM; in the test on MDA-N, 90.8 µM; with MOLT-4 leukemia, 36 µM; with NCI-H23 lung, over 100 µM. In addition, the TGI with OVCAR-4 ovarian, in the test with SF-268 CNS and with T-47D breast was over 100 µM throughout.
For the compound `Cn1c(=S)[nH]c2sc3c(c2c1=O)CCSC3`, the TGI in the test on 786-0 renal, with K-562 leukemia, in the test with MDA-MB-435, in the test with MDA-N, in the test with MOLT-4 leukemia and in the test on NCI-H23 lung was over 100 µM in each case. For the same compound, the TGI in the test with OVCAR-4 ovarian was over 100 µM; with SF-268 CNS, over 100 µM; in the test on T-47D breast, 90.2 µM.
In the case of `COc1cc(C=C2C(C)=NN(c3cccc(Cl)c3)C23SCC(=O)N3c2nc3ccccc3s2)ccc1O` (centres undefined), the TGI in the test on 786-0 renal is over 91.5 µM; in the test on K-562 leukemia, 37.2 µM; in the test with MDA-MB-435 it was over 100 µM; in the test with MDA-N, over 100 µM; in the test with MOLT-4 leukemia it was 35.1 µM; with NCI-H23 lung it was 84.2 µM. Also, the TGI with OVCAR-4 ovarian is over 100 µM; in the test with SF-268 CNS it was 57.9 µM; in the test with T-47D breast it was over 100 µM.
As for `Cc1nc(N)nc(N)c1-c1ccc(Cl)c(Cl)c1`, the TGI in the test on 786-0 renal is over 100 µM; with DLD-1 colon, 55 µM; with K-562 leukemia it was over 100 µM; in the test with LXFL 529 NSCLC it was over 100 µM; with MDA-MB-435, over 100 µM; in the test with MDA-N, over 100 µM. The TGI with MOLT-4 leukemia is over 100 µM; in the test with NCI-H23 lung, over 81 µM; in the test with OVCAR-4 ovarian it was over 100 µM; in the test with SF-268 CNS, over 100 µM; with SNB-78 CNS, over 100 µM; in the test on T-47D breast it was over 100 µM. Also, in the test on XF 498 CNS, the TGI is over 100 µM.
